# Test system: 636577-100-R-J1-PDC complex spheroid viability
# Assay: Anticancer human tumor 636577-100-R-J1-PDC patient-derived endometrial adenocarcinoma cell line growth inhibition [GQUAD]
# Settings: for IC50: curve of first compound; for viability, T/C: stronger effect = lower value
# Outline: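 Viability of tumor cells grown as complex spheroids with endothelial and stromal cells, exposed to drug combinations. Top concentration at or near clinical Cmax (else 10 microM), diluted in half-log increments.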
# [1] = second compound 0.0316 µM, first compound 0.0316 µM
# [2] = second compound 0.0316 µM, first compound 0.1 µM
# [3] = second compound 0.0316 µM, first compound 0.316 µM
# [4] = second compound 0.0316 µM, first compound 1 µM
# [5] = second compound 0.0316 µM, first compound 3.16 µM
# [6] = second compound 0.0316 µM, first compound 10 µM
# [7] = second compound 0.1 µM, first compound 0.0316 µM
# [8] = second compound 0.1 µM, first compound 0.1 µM
# [9] = second compound 0.1 µM, first compound 0.316 µM
# [10] = second compound 0.1 µM, first compound 1 µM
# [11] = second compound 0.1 µM, first compound 3.16 µM
# [12] = second compound 0.1 µM, first compound 10 µM
# [13] = second compound 0.316 µM, first compound 0.0316 µM
# [14] = second compound 0.316 µM, first compound 0.1 µM
# [15] = second compound 0.316 µM, first compound 0.316 µM
# [16] = second compound 0.316 µM, first compound 1 µM
# [17] = second compound 0.316 µM, first compound 3.16 µM
# [18] = second compound 0.316 µM, first compound 10 µM
# [19] = second compound 1 µM, first compound 0.0316 µM
# [20] = second compound 1 µM, first compound 0.1 µM
# [21] = second compound 1 µM, first compound 0.316 µM
# [22] = second compound 1 µM, first compound 1 µM
# [23] = second compound 1 µM, first compound 3.16 µM
# [24] = second compound 1 µM, first compound 10 µM
# [25] = second compound 3.16 µM, first compound 0.0316 µM
# [26] = second compound 3.16 µM, first compound 0.1 µM
# [27] = second compound 3.16 µM, first compound 0.316 µM
# [28] = second compound 3.16 µM, first compound 1 µM
# [29] = second compound 3.16 µM, first compound 3.16 µM
# [30] = second compound 3.16 µM, first compound 10 µM
# [31] = second compound 10 µM, first compound 0.0316 µM
# [32] = second compound 10 µM, first compound 0.1 µM
# [33] = second compound 10 µM, first compound 0.316 µM
# [34] = second compound 10 µM, first compound 1 µM
# [35] = second compound 10 µM, first compound 3.16 µM
# [36] = second compound 10 µM, first compound 10 µM
# 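Also: viability read after seven days of drug exposure.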
# 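For viability, T/C in this document: luminescence signal used as a proxy for viable cells; 100% = DMSO vehicle control wells.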
smiles,measurement,setting,value
Nc1ccn(C2OC(CO)C(O)C2(F)F)c(=O)n1 (centres undefined) + Cc1cnc(CNC(=O)c2c(=O)c3ccc(N4CCCN(C)CC4)nc3n3c2sc2ccccc23)cn1,IC50,second compound 0.0316 µM,< 31.6 nM
same,IC50,second compound 0.1 µM,< 31.6 nM
same,IC50,second compound 0.316 µM,< 31.6 nM
same,IC50,second compound 1 µM,< 31.6 nM
same,IC50,second compound 3.16 µM,< 31.6 nM
same,IC50,second compound 10 µM,< 31.6 nM
same,"viability, T/C",[1],15.9%
same,"viability, T/C",[2],13.3%
same,"viability, T/C",[3],15%
same,"viability, T/C",[4],12.4%
same,"viability, T/C",[5],13.6%
same,"viability, T/C",[6],12.1%
same,"viability, T/C",[7],17.9%
same,"viability, T/C",[8],13.8%
same,"viability, T/C",[9],16.3%
same,"viability, T/C",[10],13.3%
same,"viability, T/C",[11],16.2%
same,"viability, T/C",[12],14.6%
same,"viability, T/C",[13],17.6%
same,"viability, T/C",[14],15.1%
same,"viability, T/C",[15],16.5%
same,"viability, T/C",[16],15.2%
same,"viability, T/C",[17],16.3%
same,"viability, T/C",[18],13.9%
same,"viability, T/C",[19],14.7%
same,"viability, T/C",[20],14.8%
same,"viability, T/C",[21],16.6%
same,"viability, T/C",[22],17.5%
same,"viability, T/C",[23],16.6%
same,"viability, T/C",[24],15.3%
same,"viability, T/C",[25],15.4%
same,"viability, T/C",[26],16.5%
same,"viability, T/C",[27],17.9%
same,"viability, T/C",[28],17.7%
same,"viability, T/C",[29],17.6%
same,"viability, T/C",[30],12.7%
same,"viability, T/C",[31],18.2%
same,"viability, T/C",[32],13.8%
same,"viability, T/C",[33],18.1%
same,"viability, T/C",[34],16.4%
same,"viability, T/C",[35],16.3%
same,"viability, T/C",[36],13.5%
O=c1[nH]cc(F)c(=O)[nH]1 + Cc1cnc(CNC(=O)c2c(=O)c3ccc(N4CCCN(C)CC4)nc3n3c2sc2ccccc23)cn1,IC50,second compound 0.0316 µM,< 31.6 nM
same,IC50,second compound 0.1 µM,< 31.6 nM
same,IC50,second compound 0.316 µM,< 31.6 nM
same,IC50,second compound 1 µM,< 31.6 nM
same,IC50,second compound 3.16 µM,< 31.6 nM
same,IC50,second compound 10 µM,< 31.6 nM
same,"viability, T/C",[1],47.8%
same,"viability, T/C",[2],45.1%
same,"viability, T/C",[3],49.7%
same,"viability, T/C",[4],39.9%
same,"viability, T/C",[5],36.7%
same,"viability, T/C",[6],21.3%
same,"viability, T/C",[7],28.9%
same,"viability, T/C",[8],26.9%
same,"viability, T/C",[9],27.6%
same,"viability, T/C",[10],25.9%
same,"viability, T/C",[11],25.5%
same,"viability, T/C",[12],18.4%
same,"viability, T/C",[13],24.2%
same,"viability, T/C",[14],23.3%
same,"viability, T/C",[15],17.6%
same,"viability, T/C",[16],21.9%
same,"viability, T/C",[17],22.2%
same,"viability, T/C",[18],16.6%
same,"viability, T/C",[19],21.3%
same,"viability, T/C",[20],21.1%
same,"viability, T/C",[21],19.7%
same,"viability, T/C",[22],23%
same,"viability, T/C",[23],21.1%
same,"viability, T/C",[24],20.1%
same,"viability, T/C",[25],20%
same,"viability, T/C",[26],19.5%
same,"viability, T/C",[27],21.8%
same,"viability, T/C",[28],24.1%
same,"viability, T/C",[29],21%
same,"viability, T/C",[30],22%
same,"viability, T/C",[31],17.7%
same,"viability, T/C",[32],17.9%
same,"viability, T/C",[33],18%
same,"viability, T/C",[34],18.7%
same,"viability, T/C",[35],20.4%
same,"viability, T/C",[36],20.1%

# Reference: PubChem BioAssay AID2060504 (Molecular Pharmacology Branch, DTP, NCI, 2025)
